Test results taken from patent US20230138851A1, “NOVEL ALKYNE DERIVATIVES” (CARNA BIOSCIENCES, INC., priority 2020, published 2023).

Columns and labels:
Format in all cases: biochemical
DYRK2 = molecular target: T1, DYRK2 (Homo sapiens, UniProt Q92630); test: Inhibition test on activity of DYRK family, mobility shift assay (MSA), DYRK2; details: ATP 40 μM, FITC-labeled DYRKtide peptide substrate, room temperature 1 hour; read-out: Inhibitory Activity 2 (IC50 against DYRK2)
T1 construct: purchased Carna Biosciences, Inc. 04-132
T1 sequence (Q92630 1-601): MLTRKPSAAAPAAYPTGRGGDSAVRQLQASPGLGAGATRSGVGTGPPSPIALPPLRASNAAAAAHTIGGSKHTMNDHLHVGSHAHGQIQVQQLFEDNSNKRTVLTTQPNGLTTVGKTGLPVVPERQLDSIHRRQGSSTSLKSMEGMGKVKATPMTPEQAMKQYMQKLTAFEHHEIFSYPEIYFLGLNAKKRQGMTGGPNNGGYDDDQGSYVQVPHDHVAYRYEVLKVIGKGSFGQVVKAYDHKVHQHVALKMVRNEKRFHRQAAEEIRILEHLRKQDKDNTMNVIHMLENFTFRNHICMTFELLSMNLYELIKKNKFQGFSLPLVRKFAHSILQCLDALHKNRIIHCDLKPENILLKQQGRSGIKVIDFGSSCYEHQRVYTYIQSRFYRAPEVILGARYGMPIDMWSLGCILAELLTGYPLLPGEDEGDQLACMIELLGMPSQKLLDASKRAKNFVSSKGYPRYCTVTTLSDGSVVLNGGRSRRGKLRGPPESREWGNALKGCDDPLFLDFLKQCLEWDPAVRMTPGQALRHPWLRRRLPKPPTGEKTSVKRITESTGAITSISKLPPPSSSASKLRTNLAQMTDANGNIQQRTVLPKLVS
Procedure: (§1) [Inhibition Test on Activity of DYRK Family (DYRK1A, DYRK1B, DYRK2, and […])]
(§2) (Method for Measuring Kinase Activity)
(§3) The kinase activity was measured by mobility shift assay (MSA) method using QuickScout Screening Assist™ MSA (commercially available kit manufactured by Carna Biosciences, Inc.). The substrate of the kinase reaction used was an FITC-labeled DYRKtide peptide included in the kit. An assay buffer [20 mM HEPES, 0.01% Triton X-100™, 2 mM dithiothreitol, pH 7.5] was used to create a substrate mixture solution with a substrate (4 μM), MgCl2 (20 mM), and ATP (DYRK1A: 100 μM; DYRK1B: 200 μM; DYRK2: 40 μM; and DYRK3: 20 μM). In addition, kinases (DYRK1A: manufactured by Carna Biosciences, Inc., Cat. No. 04-130; DYRK1B: manufactured by Carna Biosciences, Inc., Cat. No. 04-131; DYRK2; manufactured by Carna Biosciences, Inc., Cat. No. 04-132; and DYRK3; manufactured by Carna Biosciences, Inc., Cat. No. 04-133) were diluted with the assay buffer to prepare enzyme solutions (DYRK1A: 0.2 ng/μL; DYRK1B: 0.08 ng/μL; DYRK2: 0.04 ng/μL; and DYRK3: 0.25 ng/μL). The 10 mM solution of the test compound in DMSO was further diluted with DMSO to 10 levels of the concentration (0.00003 mM, 0.0001 mM, 0.0003 mM, 0.001 mM, 0.003 mM, 0.01 mM, 0.03 mM, 0.1 mM, 0.3 mM, and 1 mM), each of which was subjected to 25-fold dilution with the assay buffer to obtain a drug solution (4% DMSO solution). 5 μL of the drug solution or a control solution (4% DMSO-assay buffer), 5 μL of the substrate mixture solution, and 10 μL of the enzyme solution were mixed in the wells of a polypropylene 384-well plate and allowed to react at room temperature for 1 hour, and then the reaction was quenched by adding 60 μL of the termination buffer included in the kit. Subsequently, the quantities of the substrates (S) and the phosphorylated substrate (P) in the reaction solution were measured using LabChip EZ Reader II system (manufactured by Caliper Life Sciences) according to the protocol of the assay kit.
(§4) (Method for Evaluating Inhibitory Activity)
(§5) The heights of the peaks of the “substrate” and the “phosphorylated substrate” were expressed as S and P, respectively, and a blank containing the assay buffer instead of the enzyme solution was also measured.
(§6) The inhibition rate (%) of the test compound was calculated according to the following equation:
(§7) Inhibition rate (%)=(1−(C−A)/(B−A))×100
(§8) wherein, A, B, and C represent P/(P+S) of the blank well, P/(P+S) of the control solution well, and P/(P+S) of the compound-containing well, respectively.
(§9) The IC50 value was calculated via a regression analysis of the inhibition rate and the test compound concentration (logarithmic value).
(§10) The inhibiting activities of representative compounds of the present invention are shown against DYRK1A, DYRK1B, DYRK2, and DYRK3 in Tables 7 and 8. The kinase activity inhibitory effect was indicated with the mark *** at an IC50 value of less than 0.01 μM; the mark ** at 0.01 μM or more and less than 0.1 μM; the mark * at 0.1 μM or more and less than 1 μM; and the mark — at 1 μM or more (N.D. indicates not measured).

DYRK1A = molecular target: T2, DYRK1A (Homo sapiens, UniProt Q13627); test: Inhibition test on activity of DYRK family, mobility shift assay (MSA), DYRK1A; details: ATP 100 μM, FITC-labeled DYRKtide peptide substrate, room temperature 1 hour; for IC50: read-out: Inhibitory Activity 1a (IC50 against DYRK1A)
T2 construct: purchased Carna Biosciences, Inc. 04-130
Procedure: as §1, §2, §3, §4, §5, §6, §7, §8, §9, §10

DYRK3 = molecular target: T3, DYRK3 (Homo sapiens, UniProt O43781); test: Inhibition test on activity of DYRK family, mobility shift assay (MSA), DYRK3; details: ATP 20 μM, FITC-labeled DYRKtide peptide substrate, room temperature 1 hour; for IC50: read-out: Inhibitory Activity 3 (IC50 against DYRK3)
T3 construct: purchased Carna Biosciences, Inc. 04-133
T3 sequence (O43781 1-588): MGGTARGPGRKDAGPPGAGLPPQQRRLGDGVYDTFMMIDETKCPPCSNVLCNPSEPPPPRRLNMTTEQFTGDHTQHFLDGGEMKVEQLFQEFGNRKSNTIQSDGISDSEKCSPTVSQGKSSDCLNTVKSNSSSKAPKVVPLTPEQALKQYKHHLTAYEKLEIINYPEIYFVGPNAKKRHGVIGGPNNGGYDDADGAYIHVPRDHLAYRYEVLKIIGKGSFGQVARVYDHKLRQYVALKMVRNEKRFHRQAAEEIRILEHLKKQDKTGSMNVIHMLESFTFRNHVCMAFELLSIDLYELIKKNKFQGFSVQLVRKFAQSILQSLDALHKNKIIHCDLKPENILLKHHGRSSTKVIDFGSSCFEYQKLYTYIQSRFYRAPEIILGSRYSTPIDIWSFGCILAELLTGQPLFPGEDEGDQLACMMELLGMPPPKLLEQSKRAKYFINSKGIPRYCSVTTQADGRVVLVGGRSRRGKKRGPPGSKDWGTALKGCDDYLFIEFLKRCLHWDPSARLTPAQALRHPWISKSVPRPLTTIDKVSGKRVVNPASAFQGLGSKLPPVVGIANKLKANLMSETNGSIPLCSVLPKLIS
Procedure: as §1, §2, §3, §4, §5, §6, §7, §8, §9, §10

| SMILES | IC50 (DYRK2) | IC50 (DYRK1A) | IC50 (DYRK3) | Inhibitory Activity 1a (IC50 against DYRK1A) (DYRK1A) | Inhibitory Activity 3 (IC50 against DYRK3) (DYRK3) |
| --- | --- | --- | --- | --- | --- |
| CC#CC1CNC(=O)N1c1nc2c(ccc3ocnc32)s1 (single isomer, unassigned) [Example 53, 5-(prop-1-yn-1-yl)-1-(thiazolo[5′,4′:5,6]benz[1,2-d]oxazol-7-yl)imidazolidin-2-one] | ≥ 1000 nM | 100 to 1000 nM | ≥ 1000 nM |  |  |
| CC#C[C@H]1[C@H](C)NC(=O)N1c1nc2c3c(ccc2s1)OCC3 [Example 4, (4S,5S)-1-(7,8-dihydrobenzofuro[4,5-d]thiazol-2-yl)-4-methyl-5-(prop-1-yn-1-yl)imidazolidin-2-one] | ≥ 1000 nM | ≥ 1000 nM | ≥ 1000 nM |  |  |
| [2H]C1([2H])Oc2ccc3sc(N4C(=O)NC[C@H]4C#CC)nc3c2O1 [Example 62, (R)-1-([1,3]dioxolo[4′,5′:5,6]benz[1,2-d]thiazol-7-yl-2,2-d2)-5-(prop-1-yn-1-yl)imidazolidin-2-one] | 100 to 1000 nM |  |  | * * * | * * |
| CC#C[C@@H]1[C@H]([C@@H](C)O)NC(=O)N1c1nc2c3c(ccc2s1)OCC3 [Example 82, (4R,5R)-1-(7,8-dihydrobenzofuro[4,5-d]thiazol-2-yl)-4-((R)-1-hydroxyethyl)-5-(prop-1-yn-1-yl)imidazolidin-2-one] | 100 to 1000 nM |  |  | * * * | * * |
| CC#C[C@H]1[C@H](CO)NC(=O)N1c1nc2c3c(ccc2s1)OCCO3 (single isomer, unassigned) [Example 65, trans-1-(7,8-dihydro-[1,4]dioxino[2′,3′:5,6]benz[1,2-d]thiazol-2-yl)-4-(hydroxymethyl)-5-(prop-1-yn-1-yl)imidazolidin-2-one] | 100 to 1000 nM |  | 100 to 1000 nM | * * * |  |
| CC#CC1CNC(=O)N1c1nc2c3c(ccc2s1)OCCN3S(C)(=O)=O (racemic) [Example 47, (RS)-1-[9-(methylsulfonyl)-8,9-dihydro-7H-thiazolo[4′,5′:3,4]benz[1,2-b][1,4]oxazin-2-yl]-5-(prop-1-yn-1-yl)imidazolidin-2-one] | ≥ 1000 nM |  | 100 to 1000 nM | * * |  |
| C[Si](C)(C)C#CC1CNC(=O)N1c1nc2c3c(ccc2s1)OCC3 (racemic) [Example 11, (RS)-1-(7,8-dihydrobenzofuro[4,5-d]thiazol-2-yl)-5-[(trimethylsilyl)ethynyl]imidazolidin-2-one] | 100 to 1000 nM |  | 100 to 1000 nM | * * |  |
| O=C1NCC(C#Cc2ccccc2)N1c1nc2c3c(ccc2s1)OCC3 (racemic) [Example 15, (RS)-1-(7,8-dihydrobenzofuro[4,5-d]thiazol-2-yl)-5-(phenylethynyl)imidazolidin-2-one] | ≥ 1000 nM | 100 to 1000 nM | ≥ 1000 nM |  |  |
| CC#C[C@H]1[C@H](CC)NC(=O)N1c1nc2c3c(ccc2s1)OCC3 (single isomer, unassigned) [Example 71, trans-1-(7,8-dihydrobenzofuro[4,5-d]thiazol-2-yl)-4-ethyl-5-(prop-1-yn-1-yl)imidazolidin-2-one] | ≥ 1000 nM |  | 100 to 1000 nM | * * * |  |
| CC#CC1CNC(=O)N1c1nc2c3c(ccc2s1)OCC(C)N3C (single isomer, unassigned) [Example 49, 1-(-8,9-dimethyl-8,9-dihydro-7H-thiazolo[4′,5′:3,4]benz[1,2-b][1,4]oxazin-2-yl)-5-(prop-1-yn-1-yl)imidazolidin-2-one] | ≥ 1000 nM |  | 100 to 1000 nM | * * * |  |
| O=C1NCC(C#CC2CC2)N1c1nc2c3c(ccc2s1)OCC3 (racemic) [Example 21, (RS)-5-(cyclopropylethynyl)-1-(7,8-dihydrobenzofuro[4,5-d]thiazol-2-yl)imidazolidin-2-one] | ≥ 1000 nM |  | 100 to 1000 nM | * * * |  |
| CC#CC1CNC(=O)N1c1nc2c3c(ccc2s1)OCCN3CCN1CCN(C)CC1 (racemic) [Example 44, (RS)-1-{9-[2-(4-methylpiperazin-1-yl)ethyl]-8,9-dihydro-7H-thiazolo[4′,5′:3,4]benz[1,2-b][1,4]oxazin-2-yl}-5-(prop-1-yn-1-yl)imidazolidin-2-one] | ≥ 1000 nM | ≥ 1000 nM | ≥ 1000 nM |  |  |
| CC#CC1CNC(=O)N1c1nc2c(ccc3ocnc32)s1 (single isomer, unassigned) [Example 52, 5-(prop-1-yn-1-yl)-1-(thiazolo[5′,4′:5,6]benz[1,2-d]oxazol-7-yl)imidazolidin-2-one] | ≥ 1000 nM |  | 100 to 1000 nM | * * * |  |
| CC#C[C@@H]1[C@H](CO)NC(=O)N1c1nc2c3c(ccc2s1)OCC3 (relative stereo) [Example 60, cis-1-(7,8-dihydrobenzofuro[4,5-d]thiazol-2-yl)-4-(hydroxymethyl)-5-(prop-1-yn-1-yl)imidazolidin-2-one] | 100 to 1000 nM |  |  | * * * | * * |
| CC#C[C@@H]1[C@H](C)NC(=O)N1c1nc2c3c(ccc2s1)OCCO3 [Example 56, (4S,5R)-1-(7,8-dihydro-[1,4]dioxino[2′,3′:5,6]benz[1,2-d]thiazol-2-yl)-4-methyl-5-(prop-1-yn-1-yl)imidazolidin-2-one] | 100 to 1000 nM |  | 100 to 1000 nM | * * * |  |
